Values joined by “and” are separate entries in the source; they are usually repeats but may differ in a detail not shown here. Identical values can stand only once. Toxic doses and inconclusive results are not listed. Peptide text beside a SMILES is read from it. * marks the point of attachment. Tos = Cc1ccc(S(=O)(=O)*)cc1; Bn = c1ccc(C*)cc1
Tested on: P388 leukemia ip, CD2F1 mice, survival T/C
Assay: NCI In Vivo Anticancer Drug Screen. Data for tumor model P388 Leukemia (intraperitoneal) in CD2F1 (CDF1) mice
Details: endpoint: median survival time, higher = longer survival
Outline: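 Mice carrying the transplanted tumor received test compound or vehicle. Survival was recorded in each group, and the value is the treated-group measurement divided by that of the vehicle-treated control group.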

[1] = dose: 50.0 mg/kg/injection, schedule: Q01DX005 (ip), vehicle: saline with Tween-80
[2] = dose: 100.0 mg/kg/injection, schedule: Q01DX005 (ip), vehicle: saline with Tween-80
[3] = dose: 200.0 mg/kg/injection, schedule: Q01DX005 (ip), vehicle: saline with Tween-80
[4] = dose: 25.0 mg/kg/injection, schedule: Q01DX009 (ip), vehicle: saline
[5] = dose: 50.0 mg/kg/injection, schedule: Q01DX009 (ip), vehicle: saline
[6] = dose: 100.0 mg/kg/injection, schedule: Q01DX009 (ip), vehicle: saline
[7] = dose: 50.0 mg/kg/injection, schedule: Q01DX005 (ip), vehicle: Klucel (hydroxypropylcellulose) (HPC)
[8] = dose: 100.0 mg/kg/injection, schedule: Q01DX005 (ip), vehicle: Klucel (hydroxypropylcellulose) (HPC)
[9] = dose: 200.0 mg/kg/injection, schedule: Q01DX005 (ip), vehicle: Klucel (hydroxypropylcellulose) (HPC)
[10] = dose: 12.5 mg/kg/injection, schedule: Q01DX009 (ip), vehicle: Klucel (hydroxypropylcellulose) (HPC)
[11] = dose: 25.0 mg/kg/injection, schedule: Q01DX009 (ip), vehicle: Klucel (hydroxypropylcellulose) (HPC)
[12] = dose: 100.0 mg/kg/injection, schedule: Q04DX002 (ip), vehicle: saline with Tween-80
[13] = dose: 200.0 mg/kg/injection, schedule: Q04DX002 (ip), vehicle: saline with Tween-80
[14] = dose: 60.0 mg/kg/injection, schedule: Q01DX005 (ip), vehicle: saline
[15] = dose: 60.0 mg/kg/injection, schedule: Q01DX005 (ip), vehicle: saline with Tween-80
[16] = dose: 240.0 mg/kg/injection, schedule: Q01DX005 (ip), vehicle: saline with Tween-80
[17] = dose: 50.0 mg/kg/injection, schedule: Q01DX009 (ip), vehicle: Klucel (hydroxypropylcellulose) (HPC)

COC(=O)c1cc(-c2ccco2)n2c(NC(=O)Nc3ccc(Cl)cc3)nnc2n1
T/C [1]: 98 % of control
T/C [2]: 103 % of control
T/C [3]: 95 % of control

CCCC(=O)Nc1ccn(C2OC(CO)C(O)C2O)c(=O)n1 (centres undefined)
T/C [4]: 99 % of control
T/C [5]: 96 % of control
T/C [6]: 94 % of control
T/C (dose: 200.0 mg/kg/injection, schedule: Q01DX009 (ip), vehicle: saline): 96 % of control

Cc1c(-c2ccccc2)ccnc1/C=N/NC(=S)NCCCN(C)C
T/C (dose: 12.5 mg/kg/injection, schedule: Q01DX009 (ip), vehicle: other): 105 % of control
T/C (dose: 25.0 mg/kg/injection, schedule: Q01DX009 (ip), vehicle: other): 114 % of control
T/C (dose: 50.0 mg/kg/injection, schedule: Q01DX009 (ip), vehicle: other): 101 % of control and 112 % of control

CC1CN2CC(C)O[Si](CCCCCC[Si]34OC(C)CN(CC(C)O3)CC(C)O4)(O1)OC(C)C2 (centres undefined)
T/C [7]: 108 % of control
T/C [8]: 97 % of control
T/C [9]: 97 % of control

Fc1ccc(NC(=S)SCc2ccc(Cl)c(Cl)c2)cc1
T/C (dose: 50.0 mg/kg/injection, schedule: Q01DX009 (ip), vehicle: suspension in saline): 90 % of control
T/C (dose: 100.0 mg/kg/injection, schedule: Q01DX009 (ip), vehicle: suspension in saline): 90 % of control
T/C (dose: 200.0 mg/kg/injection, schedule: Q01DX009 (ip), vehicle: suspension in saline): 102 % of control

COc1ccc(N=C([Se])CCC(C)C)cc1
T/C (dose: 6.25 mg/kg/injection, schedule: Q01DX009 (ip), vehicle: Klucel (hydroxypropylcellulose) (HPC)): 111 % of control
T/C [10]: 106 % of control
T/C [11]: 108 % of control

Cc1ccc(S(=O)(=O)NC(CSCc2ccccc2)C(=O)NC(Cc2ccc(O)cc2)C(=O)O)cc1 (centres undefined) (Tos-Cys(Bn)-Tyr-OH; configuration not given here)
T/C [1]: 103 % of control
T/C [2]: 99 % of control
T/C [3]: 99 % of control

NP(=O)(OCCC(=O)c1ccccc1)N(CCCl)CCCl (centres undefined)
T/C (dose: 25.0 mg/kg/injection, schedule: Q04DX002 (ip), vehicle: saline with Tween-80): 163 % of control
T/C (dose: 50.0 mg/kg/injection, schedule: Q04DX002 (ip), vehicle: saline with Tween-80): 223 % of control
T/C [12]: 221 % of control and 92 % of control
T/C [13]: 89 % of control

Fc1ccnc(F)n1
T/C (dose: 25.0 mg/kg/injection, schedule: Q04DX003 (ip), vehicle: water): 100 % of control
T/C (dose: 50.0 mg/kg/injection, schedule: Q04DX003 (ip), vehicle: water): 104 % of control

CC(C)=Cc1cc(-c2cc(C=C(C)C)nc(N)n2)nc(N)n1
T/C [14]: 97 % of control
T/C (dose: 120.0 mg/kg/injection, schedule: Q01DX005 (ip), vehicle: saline): 94 % of control

C[S+](C)CCCNC(=O)c1csc(-c2cscn2)n1
T/C (dose: 6.25 mg/kg/injection, schedule: Q01DX005 (ip), vehicle: water): 101 % of control
T/C (dose: 12.5 mg/kg/injection, schedule: Q01DX005 (ip), vehicle: water): 96 % of control
T/C (dose: 25.0 mg/kg/injection, schedule: Q01DX005 (ip), vehicle: water): 101 % of control

O=C(Cc1nc2ccccc2nc1CC(=O)c1ccncc1)c1ccncc1
T/C (dose: 6.25 mg/kg/injection, schedule: Q01DX005 (ip), vehicle: saline with Tween-80): 102 % of control
T/C (dose: 12.5 mg/kg/injection, schedule: Q01DX005 (ip), vehicle: saline with Tween-80): 90 % of control
T/C [15]: 93 % of control
T/C [16]: 98 % of control

NC(N)=N/N=C/c1ccc[nH]1
T/C [1]: 104 % of control
T/C [2]: 106 % of control
T/C [3]: 104 % of control

COc1ccc2nc(-n3[nH]c(C)c(-c4cc(C)nn4-c4ccccc4)c3=O)cc(C)c2c1
T/C (dose: 100.0 mg/kg/injection, schedule: Q01DX001 (ip), vehicle: saline with Tween-80): 98 % of control
T/C (dose: 200.0 mg/kg/injection, schedule: Q01DX001 (ip), vehicle: saline with Tween-80): 91 % of control

CC1CC(=O)c2cc(-c3ccccc3)oc2C1 (centres undefined)
T/C [17]: 115 % of control
T/C (dose: 100.0 mg/kg/injection, schedule: Q01DX009 (ip), vehicle: Klucel (hydroxypropylcellulose) (HPC)): 102 % of control
T/C (dose: 200.0 mg/kg/injection, schedule: Q01DX009 (ip), vehicle: Klucel (hydroxypropylcellulose) (HPC)): 97 % of control

CNCCOC(=O)/C=C1/CCC2C(C(O)CC3C(C)(C(=O)OC)CCCC23C)C1C (centres undefined)
T/C (dose: 1.5 mg/kg/injection, schedule: Q01DX009 (ip), vehicle: saline): 110 % of control
T/C (dose: 3.0 mg/kg/injection, schedule: Q01DX009 (ip), vehicle: saline): 102 % of control
T/C (dose: 6.0 mg/kg/injection, schedule: Q01DX009 (ip), vehicle: saline): 106 % of control

COc1ccc(CC2c3cc(OC)c(OC)cc3C=CN2C)cc1OC (centres undefined)
T/C (dose: 12.5 mg/kg/injection, schedule: Q01DX005 (ip), vehicle: Klucel (hydroxypropylcellulose) (HPC)): 99 % of control
T/C (dose: 25.0 mg/kg/injection, schedule: Q01DX005 (ip), vehicle: Klucel (hydroxypropylcellulose) (HPC)): 103 % of control
T/C [7]: 96 % of control

CC1=C(C(=O)CC(=O)C(=O)Nc2cc(Cl)c(Cl)cc2Cl)Sc2ccccc2N1
T/C [1]: 101 % of control
T/C [2]: 102 % of control
T/C [3]: 98 % of control

CCOC(=O)N/N=C/c1ccc[nH]1
T/C (dose: 1.8 mg/kg/injection, schedule: Q01DX005 (ip), vehicle: saline with Tween-80): 100 % of control
T/C (dose: 3.75 mg/kg/injection, schedule: Q01DX005 (ip), vehicle: saline with Tween-80): 100 % of control
T/C (dose: 7.5 mg/kg/injection, schedule: Q01DX005 (ip), vehicle: saline with Tween-80): 101 % of control and 103 % of control

CC1(C(=O)O)NCCc2cc(O)c(O)cc21 (centres undefined)
T/C [7]: 104 % of control
T/C [8]: 104 % of control
T/C [9]: 103 % of control

COC12CC(=O)C(C(C)=O)=C(O)C1(C)c1c(OC(C)=O)c(C)c(O)c(C(C)=O)c1O2 (centres undefined)
T/C (dose: 25.0 mg/kg/injection, schedule: Q01DX009 (ip), vehicle: gum acacia): 106 % of control
T/C (dose: 50.0 mg/kg/injection, schedule: Q01DX009 (ip), vehicle: gum acacia): 99 % of control and 104 % of control and 114 % of control
T/C (dose: 100.0 mg/kg/injection, schedule: Q01DX009 (ip), vehicle: gum acacia): 124 % of control

CN1CCC(=C2c3ccccc3CCc3sccc32)CC1
T/C (dose: 12.5 mg/kg/injection, schedule: Q01DX009 (ip), vehicle: saline): 103 % of control
T/C [4]: 104 % of control
T/C [5]: 101 % of control and 103 % of control
T/C [6]: 108 % of control

COc1c2c(cc3c1C(O)N(C)CC3)OCO2 (centres undefined)
T/C (dose: 30.0 mg/kg/injection, schedule: Q01DX005 (ip), vehicle: saline): 100 % of control
T/C [14]: 100 % of control and 93 % of control

O=C(Nc1ccc(Cc2ccc(NC(=O)Nc3nccs3)cc2)cc1)Nc1nccs1
T/C [10]: 100 % of control
T/C [11]: 100 % of control and 95 % of control
T/C [17]: 98 % of control and 91 % of control

CCOC(=O)N1c2ccccc2SC1C#N (centres undefined)
T/C [15]: 97 % of control
T/C (dose: 120.0 mg/kg/injection, schedule: Q01DX005 (ip), vehicle: saline with Tween-80): 92 % of control
T/C [16]: 105 % of control

Cn1c2c(c(=O)c3cc(O)ccc31)CC(C(C)(C)O)O2 (centres undefined)
T/C [7]: 104 % of control
T/C [8]: 105 % of control
T/C [9]: 104 % of control

CC[CH2][Sn]([CH2]CC)([CH2]CC)[CH2]CCBr
T/C (dose: 50.0 mg/kg/injection, schedule: Q01DX009 (ip), vehicle: saline with Tween-80): 106 % of control
T/C (dose: 100.0 mg/kg/injection, schedule: Q01DX009 (ip), vehicle: saline with Tween-80): 100 % of control

O=C1C=C[C@H](O)[C@@]2(CO)O[C@@H]12
T/C (dose: 1.25 mg/kg/injection, schedule: Q04DX002 (ip), vehicle: saline): 103 % of control
T/C (dose: 2.5 mg/kg/injection, schedule: Q04DX002 (ip), vehicle: saline with Tween-80): 114 % of control
T/C (dose: 2.5 mg/kg/injection, schedule: Q04DX002 (ip), vehicle: saline): 104 % of control

NCCCCC(C(=O)NC(Cc1ccccc1)C(=O)O)N(C(=O)OCc1ccccc1)C(=O)OCc1ccccc1 (centres undefined)
T/C [1]: 96 % of control
T/C [2]: 101 % of control
T/C [3]: 92 % of control

O=Nc1c2ccccc2c(NO)c2ccccc12
T/C [12]: 94 % of control
T/C [13]: 92 % of control
T/C (dose: 400.0 mg/kg/injection, schedule: Q04DX002 (ip), vehicle: saline with Tween-80): 98 % of control

From PubChem BioAssay AID330 (DTP/NCI, 2004)
